Assay results taken from patent publication US20230212305A1, “ANTI-ABCG2 ANTIBODIES AND USES THEREOF” (Kenjockety Biotechnology, Inc., priority 2020, published 2023).

Tests used:
293T_ABCG2_OX cells = assay type: cell-based, human; conditions: cell killing by topotecan on 293T_ABCG2_OX cells; viability relative to IgG control
Description: Cytotoxicity Assays. The effect of antibodies on topotecan cytotoxicity was evaluated on 293T_ABCG2_OX cells, 293T cells stably transfected to express ABCG2. Cells were plated in 0.05 mL of Assay Media (DMEM+10% FBS) at 5000 cells/well in white, flat bottom 96-well tissue culture plates. Topotecan was prepared at 2× final assay concentration by serial dilution from 200 uM in assay media containing test antibodies or control antibodies at 100 ug/mL (2× final concentration), or Fumitremorgin C, a small molecule ABCG2 inhibitor at 20 uM (2× final concentration). An equivalent volume (0.05 mL) of the topotecan/antibody mixture was added to the 293T_ABCG2_OX cells in 96-well plates. The plates were then incubated at 37° C., in 5% CO2. After 72-96 hr plates were equilibrated to room temperature and cell viability assessed using Promega® CellTiter-Glo® Luminescent Cell Viability Assay according to the manufacturer's recommended protocol. Luminescence was measured on a Molecular Devices® FlexStation® 3 Multi-Mode Microplate Reader and data analyzed using GraphPad Prism 8.0 software. Half maximal inhibitory concentration (1050) is the concentration of drug (topotecan or other chemotherapy cytotoxic agent) where the response (cell growth) is reduced by 50%.

ABCG2 [1] = target: T1, ABCG2 (Homo sapiens, UniProt Q9UNQ0); experiment: Flow cytometry binding to 293T cells overexpressing human ABCG2 (293T_ABCG2_OX); set-up: key to Binding by FACS: binding=“+”; non-significant binding=“−”
T1 construct: expressed in transfected cells
T1 sequence (Q9UNQ0 1-655): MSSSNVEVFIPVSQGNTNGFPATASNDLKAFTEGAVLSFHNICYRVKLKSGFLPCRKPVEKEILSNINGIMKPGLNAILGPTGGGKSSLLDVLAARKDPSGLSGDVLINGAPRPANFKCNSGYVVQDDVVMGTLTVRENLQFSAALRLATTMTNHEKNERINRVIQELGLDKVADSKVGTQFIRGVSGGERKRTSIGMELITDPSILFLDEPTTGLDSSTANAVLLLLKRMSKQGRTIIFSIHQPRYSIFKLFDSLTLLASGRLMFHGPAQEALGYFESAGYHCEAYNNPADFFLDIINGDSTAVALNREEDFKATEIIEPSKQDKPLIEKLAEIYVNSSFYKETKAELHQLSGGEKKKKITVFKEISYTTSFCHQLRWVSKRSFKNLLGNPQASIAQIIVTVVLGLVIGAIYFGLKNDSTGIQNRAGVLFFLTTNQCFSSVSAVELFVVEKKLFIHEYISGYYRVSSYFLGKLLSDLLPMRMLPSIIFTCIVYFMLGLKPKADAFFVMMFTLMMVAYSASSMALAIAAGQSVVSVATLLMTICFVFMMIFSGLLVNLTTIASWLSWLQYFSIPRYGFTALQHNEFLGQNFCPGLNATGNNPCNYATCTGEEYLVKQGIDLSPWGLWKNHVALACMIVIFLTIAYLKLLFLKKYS
Description: (§1) Cell Binding Assays. Antibody binding to cells was evaluated by flow cytometry. 293T cells stably transfected to express human or cynomolgus ABCG2 (293T_ABCG2_OX) were washed once in flow cytometry buffer (PBS+2% FBS+0.02% sodium azide), resuspended at 2×10^6 cells/mL in flow cytometry buffer, and dispensed into 96-well microtiter plates at 0.1 mL/well. Recombinant antibodies were added to cells at 5 ug/mL for initial binding confirmation, or serially diluted from 100 ug/mL in flow cytometry buffer. After incubating cells on ice for 30 min, cells were washed twice with flow cytometry buffer. Bound antibody was detected with PE-labeled F(ab′)2 fragment goat anti-human IgG (Jackson ImmunoResearch) and evaluated on an Attune NxT flow cytometer. EC50 is calculated to be the concentration of antibody that gives half maximal response.

cynomolgus ABCG2 = experiment: Flow cytometry binding to 293T cells overexpressing cynomolgus ABCG2; set-up: key to Cynomolgus ABCG2 binding: binding=“+”; non-significant binding=“−”
Description: as §1

ABCG2 [2] = target: T1, ABCG2; assay type: cell-based
Description: 293T_ABCG2_OX cells were washed several times and aliquoted into 96-well plates as 50 μl aliquots/well at a cell density of 2×10e6 cells per ml in phenol red-free DMEM. Cells were mixed with 50 μl antibodies or the small molecule inhibitors of ABCG2:-fumitremorgin C (FTC), or its tetracyclic analogue K0143, with a final concentration of 1 μM. Cells were then incubated in the presence of 2.5 μM Mitoxantrone 1 h at 37° C. The cells were subsequently washed twice and finally resuspended in […] PBS. Mitoxantrone fluorescence was measured using excitation at 635 nm and emission at 647 nm. Protocols was measuring efflux blockade are found in Szabo E, et al., PLoS One. 2018 Jan. 17; 13(1):e0190629; Deeken J F, et al., Mol Pharmacol. 2009 November; 76(5):946-56).

cynomolgus ABCG2, sequence (as listed by the source): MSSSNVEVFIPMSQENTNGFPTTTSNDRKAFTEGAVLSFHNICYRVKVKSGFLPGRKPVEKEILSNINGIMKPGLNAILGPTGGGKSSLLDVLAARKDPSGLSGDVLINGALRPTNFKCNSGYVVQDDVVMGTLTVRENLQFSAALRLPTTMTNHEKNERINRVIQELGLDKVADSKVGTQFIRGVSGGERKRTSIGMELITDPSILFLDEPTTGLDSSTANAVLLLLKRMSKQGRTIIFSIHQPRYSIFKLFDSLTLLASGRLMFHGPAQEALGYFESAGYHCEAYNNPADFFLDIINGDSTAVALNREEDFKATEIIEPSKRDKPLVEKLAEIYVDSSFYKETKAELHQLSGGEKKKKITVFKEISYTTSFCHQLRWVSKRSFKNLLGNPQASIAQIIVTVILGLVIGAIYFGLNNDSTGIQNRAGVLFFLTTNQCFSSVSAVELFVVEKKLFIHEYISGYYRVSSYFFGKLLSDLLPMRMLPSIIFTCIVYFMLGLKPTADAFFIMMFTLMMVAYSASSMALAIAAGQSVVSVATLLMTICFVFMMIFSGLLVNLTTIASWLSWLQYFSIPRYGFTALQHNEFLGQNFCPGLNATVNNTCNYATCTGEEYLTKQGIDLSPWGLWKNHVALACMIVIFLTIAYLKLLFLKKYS

## 5D3: anti-Human ABCG2 Antibody (Clone 5D3) from R&D Systems [Antibody 5D3, reference compound]
293T_ABCG2_OX cells
  Killing: ++ (viability ≥10% and <30% of IgG control)
ABCG2 [1]; 293T_ABCG2_OX cells
  Binding by FACS: +
ABCG2 [1]; FIG. 1B, stably transfected cells
  binding to human ABCG2 expressed on 3T3 and C6 cell lines: binds
Cynomolgus ABCG2
  Cynomolgus ABCG2 binding: +
Cynomolgus ABCG2; FIG. 1B, 3T3 cells stably transfected with cABCG2
  binding to cynomolgus ABCG2 (cG2) expressed by 3T3 cells: binds
ABCG2 [2]
  Block Efflux: +
